Laboratory results reported in patent US12077503B2, “Substituted cyclic amides and their use as herbicides” (FMC CORPORATION, priority 2015, dated 2024).

How the values were obtained:
Type in all cases: in vivo
[1] = system: velvetleaf (Abutilon theophrasti); test: Test G Pre-Emergence Protocol; conditions: Abutilon theophrasti, pre-emergence, 312 h, evaluated after 13 days; for pest or weed control at 15.625 g/ha: 15.625 g ai/ha; for pest or weed control at 15.625 g/ha / pest or weed control at 250 g/ha: read-out: Velvetleaf damage rating (100=total damage to plant; 0=no damage to plant); for pest or weed control at 62.5 g/ha: 62.5 g ai/ha, 100=total damage to plant, 0=no damage to plant, read-out: Velvetleaf damage rating; for pest or weed control at 250 g/ha: 250 g ai/ha
Summary of the method: (§1)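 One day after sowing, pots are treated with a spray of test compound formulated in acetone/water 50:50 plus 0.5% Tween 20, giving 15.625, 62.5 or 250 g/ha. Evaluation on a 0–100 damage scale follows 13 days of glasshouse growth.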

[2] = system: giant foxtail (Setaria faberi); test: Test G Pre-Emergence Protocol; conditions: Setaria faberi, pre-emergence, 312 h, evaluated after 13 days; for pest or weed control at 15.625 g/ha: 15.625 g ai/ha; for pest or weed control at 15.625 g/ha / pest or weed control at 250 g/ha: read-out: Foxtail, Giant damage rating (100=total damage to plant; 0=no damage to plant); for pest or weed control at 62.5 g/ha: 62.5 g ai/ha, 100=total damage to plant, 0=no damage to plant, read-out: Foxtail, Giant damage rating; for pest or weed control at 250 g/ha: 250 g ai/ha
Summary of the method: as §1

[3] = system: ivy-leaved morning glory (Ipomoea hederacea); test: Test G Pre-Emergence Protocol; conditions: Ipomoea, pre-emergence, 312 h, evaluated after 13 days; for pest or weed control at 15.625 g/ha: 15.625 g ai/ha; for pest or weed control at 15.625 g/ha / pest or weed control at 250 g/ha: read-out: Morningglory, Ivy-leaved damage rating (100=total damage to plant; 0=no damage to plant); for pest or weed control at 62.5 g/ha: 62.5 g ai/ha, 100=total damage to plant, 0=no damage to plant, read-out: Morningglory, Ivy-leaved damage rating; for pest or weed control at 250 g/ha: 250 g ai/ha
Summary of the method: as §1

corn (Zea mays) [4] = test: Test G Pre-Emergence Protocol; conditions: Zea mays, pre-emergence, 312 h, evaluated after 13 days; for plant injury at 15.625 g/ha: 15.625 g ai/ha; for plant injury at 15.625 g/ha / plant injury at 250 g/ha: read-out: Corn damage rating (100=total damage to plant; 0=no damage to plant); for plant injury at 62.5 g/ha: 62.5 g ai/ha, 100=total damage to plant, 0=no damage to plant, read-out: Corn damage rating; for plant injury at 250 g/ha: 250 g ai/ha
Summary of the method: as §1

[5] = system: barnyardgrass (Echinochloa crus-galli); test: Test G Pre-Emergence Protocol; conditions: Echinochloa crus-galli, pre-emergence, 312 h, evaluated after 13 days; for pest or weed control at 15.625 g/ha: 15.625 g ai/ha; for pest or weed control at 15.625 g/ha / pest or weed control at 250 g/ha: read-out: Barnyardgrass damage rating (100=total damage to plant; 0=no damage to plant); for pest or weed control at 62.5 g/ha: 62.5 g ai/ha, 100=total damage to plant, 0=no damage to plant, read-out: Barnyardgrass damage rating; for pest or weed control at 250 g/ha: 250 g ai/ha
Summary of the method: as §1

[6] = system: redroot pigweed (Amaranthus retroflexus); test: Test G Pre-Emergence Protocol; conditions: Amaranthus retroflexus, pre-emergence, 312 h, evaluated after 13 days; for pest or weed control at 15.625 g/ha: 15.625 g ai/ha; for pest or weed control at 15.625 g/ha / pest or weed control at 250 g/ha: read-out: Pigweed, Redroot damage rating (100=total damage to plant; 0=no damage to plant); for pest or weed control at 62.5 g/ha: 62.5 g ai/ha, 100=total damage to plant, 0=no damage to plant, read-out: Pigweed, Redroot damage rating; for pest or weed control at 250 g/ha: 250 g ai/ha
Summary of the method: as §1

[7] = system: velvetleaf (Abutilon theophrasti); test: Test G Post-Emergence Protocol; conditions: Abutilon theophrasti, post-emergence, 312 h, read-out: Velvetleaf damage rating; for pest or weed control at 15.625 g/ha: 15.625 g ai/ha, evaluated after 13 days (100=total damage to plant; 0=no damage to plant); for pest or weed control at 62.5 g/ha: 62.5 g ai/ha; for pest or weed control at 62.5 g/ha / pest or weed control at 250 g/ha: evaluated after 13 days, 100=total damage to plant, 0=no damage to plant; for pest or weed control at 250 g/ha: 250 g ai/ha
Summary of the method: (§2)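 Pot-grown seedlings, 8 days old, raised in a glasshouse at 24/16 °C day/night with 14 h light and 65% humidity, were sprayed post-emergence with test compound in acetone/water (50:50) plus 0.5% Tween 20 at 15.625, 62.5 or 250 g/ha. Damage was scored visually 13 days later on a 0–100 scale (100 = total damage).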

[8] = system: giant foxtail (Setaria faberi); test: Test G Post-Emergence Protocol; conditions: Setaria faberi, post-emergence, 312 h, read-out: Foxtail, Giant damage rating; for pest or weed control at 15.625 g/ha: 15.625 g ai/ha, evaluated after 13 days (100=total damage to plant; 0=no damage to plant); for pest or weed control at 62.5 g/ha: 62.5 g ai/ha; for pest or weed control at 62.5 g/ha / pest or weed control at 250 g/ha: evaluated after 13 days, 100=total damage to plant, 0=no damage to plant; for pest or weed control at 250 g/ha: 250 g ai/ha
Summary of the method: as §2

[9] = system: ivy-leaved morning glory (Ipomoea hederacea); test: Test G Post-Emergence Protocol; conditions: Ipomoea, post-emergence, 312 h, read-out: Morningglory, Ivy-leaved damage rating; for pest or weed control at 15.625 g/ha: 15.625 g ai/ha, evaluated after 13 days (100=total damage to plant; 0=no damage to plant); for pest or weed control at 62.5 g/ha: 62.5 g ai/ha; for pest or weed control at 62.5 g/ha / pest or weed control at 250 g/ha: evaluated after 13 days, 100=total damage to plant, 0=no damage to plant; for pest or weed control at 250 g/ha: 250 g ai/ha
Summary of the method: as §2

corn (Zea mays) [10] = test: Test G Post-Emergence Protocol; conditions: Zea mays, post-emergence, 312 h, read-out: Corn damage rating; for plant injury at 15.625 g/ha: 15.625 g ai/ha, evaluated after 13 days (100=total damage to plant; 0=no damage to plant); for plant injury at 62.5 g/ha: 62.5 g ai/ha; for plant injury at 62.5 g/ha / plant injury at 250 g/ha: evaluated after 13 days, 100=total damage to plant, 0=no damage to plant; for plant injury at 250 g/ha: 250 g ai/ha
Summary of the method: as §2

[11] = system: barnyardgrass (Echinochloa crus-galli); test: Test G Post-Emergence Protocol; conditions: Echinochloa crus-galli, post-emergence, 312 h, read-out: Barnyardgrass damage rating; for pest or weed control at 15.625 g/ha: 15.625 g ai/ha, evaluated after 13 days (100=total damage to plant; 0=no damage to plant); for pest or weed control at 62.5 g/ha: 62.5 g ai/ha; for pest or weed control at 62.5 g/ha / pest or weed control at 250 g/ha: evaluated after 13 days, 100=total damage to plant, 0=no damage to plant; for pest or weed control at 250 g/ha: 250 g ai/ha
Summary of the method: as §2

[12] = system: redroot pigweed (Amaranthus retroflexus); test: Test G Post-Emergence Protocol; conditions: Amaranthus retroflexus, post-emergence, 312 h, read-out: Pigweed, Redroot damage rating; for pest or weed control at 15.625 g/ha: 15.625 g ai/ha, evaluated after 13 days (100=total damage to plant; 0=no damage to plant); for pest or weed control at 62.5 g/ha: 62.5 g ai/ha; for pest or weed control at 62.5 g/ha / pest or weed control at 250 g/ha: evaluated after 13 days, 100=total damage to plant, 0=no damage to plant; for pest or weed control at 250 g/ha: 250 g ai/ha
Summary of the method: as §2

| Compound | pest or weed control at 15.625 g/ha [1] [%] | pest or weed control at 62.5 g/ha [1] [%] | pest or weed control at 250 g/ha [1] [%] | pest or weed control at 15.625 g/ha [2] [%] | pest or weed control at 62.5 g/ha [2] [%] | pest or weed control at 250 g/ha [2] [%] | pest or weed control at 15.625 g/ha [3] [%] | pest or weed control at 62.5 g/ha [3] [%] | pest or weed control at 250 g/ha [3] [%] | plant injury at 15.625 g/ha (corn (Zea mays) [4]) [%] | plant injury at 62.5 g/ha (corn (Zea mays) [4]) [%] | plant injury at 250 g/ha (corn (Zea mays) [4]) [%] | pest or weed control at 15.625 g/ha [5] [%] | pest or weed control at 62.5 g/ha [5] [%] | pest or weed control at 250 g/ha [5] [%] | pest or weed control at 15.625 g/ha [6] [%] | pest or weed control at 62.5 g/ha [6] [%] | pest or weed control at 250 g/ha [6] [%] | pest or weed control at 15.625 g/ha [7] [%] | pest or weed control at 62.5 g/ha [7] [%] | other results |
| --- | --- | --- | --- | --- | --- | --- | --- | --- | --- | --- | --- | --- | --- | --- | --- | --- | --- | --- | --- | --- | --- |
| CN1C[C@H](c2cccc(C(F)(F)F)c2)[C@@H](C(=O)Nc2cccc3c2S(=O)(=O)CC3)C1=O (racemic) [Compound 1738] | 0 | 0 | 0 | 0 | 0 | 70 | 0 | 0 | 0 | 0 | 0 | 0 | 0 | 0 | 70 | 0 | 0 | 0 | 0 | 10 | pest or weed control at 250 g/ha [7]: 10%; pest or weed control at 15.625 g/ha [8]: 20%; pest or weed control at 62.5 g/ha [8]: 40%; pest or weed control at 250 g/ha [8]: 70%; pest or weed control at 15.625 g/ha [9]: 0%; pest or weed control at 62.5 g/ha [9]: 0%; pest or weed control at 250 g/ha [9]: 0%; plant injury at 15.625 g/ha (corn (Zea mays) [10]): 0%; plant injury at 62.5 g/ha (corn (Zea mays) [10]): 0%; plant injury at 250 g/ha (corn (Zea mays) [10]): 0%; pest or weed control at 15.625 g/ha [11]: 0%; pest or weed control at 62.5 g/ha [11]: 40%; pest or weed control at 250 g/ha [11]: 80%; pest or weed control at 15.625 g/ha [12]: 20%; pest or weed control at 62.5 g/ha [12]: 10%; pest or weed control at 250 g/ha [12]: 10% |
| Cc1ccc([C@H]2CN(C)C(=O)[C@@H]2C(=O)Nc2cccc3c2S(=O)(=O)CC3)cc1 (racemic) [Compound 1739] | 0 | 0 | 0 | 0 | 0 | 0 | 0 | 0 | 0 | 0 | 0 | 0 | 0 | 0 | 0 | 0 | 0 | 0 | 0 | 0 | pest or weed control at 250 g/ha [7]: 0%; pest or weed control at 15.625 g/ha [8]: 0%; pest or weed control at 62.5 g/ha [8]: 0%; pest or weed control at 250 g/ha [8]: 0%; pest or weed control at 15.625 g/ha [9]: 0%; pest or weed control at 62.5 g/ha [9]: 0%; pest or weed control at 250 g/ha [9]: 0%; plant injury at 15.625 g/ha (corn (Zea mays) [10]): 0%; plant injury at 62.5 g/ha (corn (Zea mays) [10]): 0%; plant injury at 250 g/ha (corn (Zea mays) [10]): 0%; pest or weed control at 15.625 g/ha [11]: 0%; pest or weed control at 62.5 g/ha [11]: 0%; pest or weed control at 250 g/ha [11]: 0%; pest or weed control at 15.625 g/ha [12]: 0%; pest or weed control at 62.5 g/ha [12]: 0%; pest or weed control at 250 g/ha [12]: 0% |
| CN1C[C@H](c2ccc(C(F)F)cc2)[C@@H](C(=O)Nc2cnccc2C(F)(F)F)C1=O (racemic) [Compound 1743] | 10 | 50 | 80 | 30 | 90 | 90 | 0 | 60 | 70 | 30 | 20 | 80 | 30 | 40 | 80 | 20 | 60 | 80 | 0 | 0 | pest or weed control at 250 g/ha [7]: 50%; pest or weed control at 15.625 g/ha [8]: 20%; pest or weed control at 62.5 g/ha [8]: 70%; pest or weed control at 15.625 g/ha [9]: 0%; pest or weed control at 62.5 g/ha [9]: 0%; pest or weed control at 250 g/ha [9]: 30%; plant injury at 15.625 g/ha (corn (Zea mays) [10]): 0%; plant injury at 62.5 g/ha (corn (Zea mays) [10]): 0%; plant injury at 250 g/ha (corn (Zea mays) [10]): 60%; pest or weed control at 15.625 g/ha [11]: 0%; pest or weed control at 62.5 g/ha [11]: 0%; pest or weed control at 250 g/ha [11]: 80%; pest or weed control at 15.625 g/ha [12]: 0%; pest or weed control at 62.5 g/ha [12]: 0%; pest or weed control at 250 g/ha [12]: 50% |
